In ChEMBL document CHEMBL2331387, “Chemical probes of a trisubstituted pyrrole to identify its protein target(s) in Plasmodium sporozoites” (2013):
The source made the active and inactive calls. The calls are words filed in the database; no cut-off is given here.

What was measured:
Plasmodium berghei [1] = experiment: Antimalarial activity against sporozoite stage of Plasmodium berghei infected in human HepG2 cells assessed as inhibition of sporozoite infectivity at 2 uM after 40 hrs; type: functional
Plasmodium berghei [2] = experiment: Antimalarial activity against sporozoite stage of Plasmodium berghei infected in human HepG2 cells assessed as inhibition of sporozoite infectivity at 10 uM after 40 hrs; type: functional, organism-based

Row | SMILES | inhibition (Plasmodium berghei [1]) | inhibition (Plasmodium berghei [2]) | inhibition at 2 µM (Plasmodium berghei [1]; HepG2, 40 h)
1 | O=C(CCCC[C@@H]1SC[C@@H]2NC(=O)N[C@@H]21)NCCOCCOCCOCCOCCC(=O)NCCN1CCC(c2cc(-c3ccncc3)c(-c3ccc(F)cc3)[nH]2)CC1 | inactive | inactive | –
2 | NCCN1CCC(c2cc(-c3ccncc3)c(-c3ccc(F)cc3)[nH]2)CC1 | – | Active | –
3 | Fc1ccc(-c2[nH]c(C3CCNCC3)cc2-c2ccncc2)cc1 | – | Active | –
4 | CN1CCC(c2cc(-c3ccncc3)c(-c3ccc(F)cc3)[nH]2)CC1 | – | – | > 90%
5 | O=C(CCCCCNC(=O)CCCC[C@@H]1SC[C@@H]2NC(=O)N[C@@H]21)NCCCCCC(=O)NCCN1CCC(c2cc(-c3ccncc3)c(-c3ccc(F)cc3)[nH]2)CC1 | inactive | inactive | –
